Here are results for two compounds from patent US7888382B2, “Combined pharmaceutical preparation for treatment of type 2 diabetes” (Kissei Pharmaceutical Co., Ltd., priority 2005, dated 2011).

Data set [1] concerns patients with type 2 diabetes. The settings on record: human, in vivo. As for the experimental part: Clinical trials as follows were performed with double-blind, parallel group trial on patients with type 2 diabetes.
Type 2 diabetic patients of at least 20 years old whose blood glucose could not be sufficiently controlled by a dietary therapy and who requires introduction of medication and has HbA1C of at least 6.5% and less than 8.5%.
(1) 5 mg tablet of mitiglinide calcium hydrate (hereafter also referred to as “KAD-1229”)
(2) placebo tablet of KAD-1229 5 mg tablet
(4) placebo tablet of KAD-1229 10 mg tablet
(5) 0.2 mg tablet of voglibose
(6) placebo tablet of voglibose 0.2 mg tablet
(Method of Administration)
A 0.2 mg tablet of voglibose was orally administered 3 times a day immediately before every meal (within 5 minutes before eating) for 16 weeks (an observation period: a non-blind trial period). Thereafter, investigational drugs distributed as Table 1 were orally administered 3 times a day immediately before every meal (within 5 minutes before eating) for 12 weeks (a treatment period: a double-blind trial period). Administration of the investigational drugs after meal was not allowed, and administration was not performed when the meal was not taken.
The following items were assessed during and after the period of administration.

A further data set deals with Male Wistar rats. Put plainly: Oral sucrose tolerance test. The data set is classed as in vivo, rat. The settings on record: in combination with voglibose, sucrose 2.5 g/kg, compared to nateglinide or repaglinide, FIG. 11. As for the experimental part:
Male Wistar rats purchased from Japan SLC, Inc. were used in this test.
An oral sucrose tolerance test was performed using 7-week-old rats.
The rats were fasted for at least 16 hours and received oral administration of 2.5 mL/kg of a prepared tested substance or a vehicle (0.5% CMC solution), followed by oral administration of 5 mL/kg of 0.5 g/mL sucrose solution (2.5 g/kg). Blood was drawn from a rat tail vein immediately before administration and 0.25 and 0.5 hours after loading. A plasma glucose concentration was measured using a Glucose CII-test Wako (Wako Pure Chemical Industries, Ltd.).
A dose of the tested substance was converted from a usual dose of each drug for a type 2 diabetic patient (mitiglinide: 10 mg, nateglinide: 120 mg, repaglinide: 1 mg). As for nateglinide, a converted value of 12 mg was changed to 20 mg to be set as a dose, considering an effect thereof.
An area under the plasma glucose concentration-time curve from a time before sucrose loading to 0.5 hours after sucrose loading (AUC0-0.5 hr) was set as an assessment item. Blood glucose AUC0-0.5 hr was calculated from plasma glucose concentrations with a trapezoidal rule using the area under the plasma glucose concentration-time curve.
Excel (Microsoft Corp.) and GraphPad Prism 3.0 (GraphPad Software Inc.) were used to aggregate and calculate data, to make diagrams and the like. […]

Where two headings read alike, the source gives them in different places.

For the compound `OCC(CO)N[C@H]1C[C@](O)(CO)[C@@H](O)[C@H](O)[C@H]1O` [Comparative Example 1, voglibose], in data set [1] (12 weeks), the “Incidence rate of gastrointestinal disorders” value is listed as 10.1% and the “Incidence rate of hypoglycemic symptoms” value turned out to be 1.1%.

With `O.O.O=C([O-])[C@H](CC(=O)N1C[C@H]2CCCC[C@H]2C1)Cc1ccccc1.O=C([O-])[C@H](CC(=O)N1C[C@H]2CCCC[C@H]2C1)Cc1ccccc1.[Ca+2]` [Comparative Example 2, mitiglinide calcium hydrate], the “blood glucose decreasing effect (blood glucose AUC0-0.5 hr)” value with Male Wistar rats is on record as “strong blood glucose decreasing effect within a very short time”. Further, in data set [1], the “Incidence rate of gastrointestinal disorders” value turned out to be 6.8% and the “Incidence rate of hypoglycemic symptoms” value worked out at 3.9%.
